# According to US20230247991A1, “ANTIMICROBIAL MIXTURE CONTAINING 4-(3-ETHOXY-4-HYDROXYPHENYL)BUTAN-2-ONE AND AN ORGANIC ACID COMPOUND, AND COSMETIC COMPOSITION CONTAINING SAME” (L'OREAL, priority 2017, published 2023):
# Where “and” joins values, the source holds several entries; their conditions need not be identical. Identical values can stand only once.
# Assays:
# Experiment in all cases: MIC / FIC index synergy test, 96-well microplate, optical density at 620 nm
# Assay type in all cases: cell-based
# [1] = test system: Candida albicans ATCC 10231; conditions: compound alone; for MIC alone: first concentration giving growth <= 25%
# Excerpt: FIC Index=([…]) with: • MICa with B: minimum concentration of product A in the combination A+B which makes it possible to obtain an inhibitory effect • MICb with A: minimum concentration of product B in the combination A+B which makes it possible to obtain an inhibitory effect. • MICa: minimum inhibitory concentration of product A alone. • MICb: minimum inhibitory concentration of product B alone. […] The microbial strain Candida albicans ATCC 10231 and a double-concentration Sabouraud broth liquid culture medium were used. A 96-well microplate and an incubation temperature of 32.5° C. are used. […] Successive dilutions were made with the 1‰ agar solution. 50 μl of each of the daughter solutions obtained containing compound A or B are added to the microplate wells. 100 μl of Sabouraud liquid nutrient broth inoculated at double concentration with the strain Candida albicans and 50 μl of aqueous 1‰ agar solution are also added thereto. 50 μl of each of the daughter solutions obtained containing compound A and 50 μl of each of the daughter solutions obtained containing compound B are added to the microplate wells. 100 μl of Sabouraud liquid nutrient broth inoculated at double concentration with the strain Candida albicans are also added thereto. In the two cases (test and control), the inoculum represents the concentration of the strain Candida albicans present in the final volume of the wells (200 μl) and is between 2 and 6χ 10^5 cfu/ml of Candida albicans.
# [2] = test system: Aspergillus niger ATCC 6275
# [3] = test system: Enterococcus faecalis ATCC 33186; conditions: compound alone; for % MIC alone: first concentration giving growth <= 25%
# Excerpt: (§1) FIC Index=([…]) with: • MICa with B: minimum concentration of product A in the combination A+B which makes it possible to obtain an inhibitory effect • MICb with A: minimum concentration of product B in the combination A+B which makes it possible to obtain an inhibitory effect. • MICa: minimum inhibitory concentration of product A alone. • MICb: minimum inhibitory concentration of product B alone. […] As regards the combinations tested, MICa with b and MICb with a are the respective concentrations of A and of B in the combinations which make it possible to obtain a microbial growth percentage of less than or equal to 25%. […] The microbial strain Enterococcus faecalis ATCC 33186 and a double-concentration BHI (Brain Heart Infusion) broth liquid culture medium were used. A 96-well microplate and an incubation temperature of 32.5° C. are used. […] Successive dilutions were made with the 1‰ agar solution. 50 μl of each of the daughter solutions obtained containing compound A or B are added to the microplate wells. 100 μl of Sabouraud liquid nutrient broth inoculated at double concentration with the strain Candida albicans and 50 μl of aqueous 1‰ agar solution are also added thereto. 50 μl of each of the daughter solutions obtained containing compound A and 50 μl of each of the daughter solutions obtained containing compound B are added to the microplate wells. 100 μl of Sabouraud liquid nutrient broth inoculated at double concentration with the strain Candida albicans are also added thereto. […] The test as described above (tests, absorbance controls and growth control) was performed again to test the combination A+B on the following strains Enterococcus faecalis, Staphylococcus aureus, Pseudomonas aeruginosa, Candida albicans.
# [4] = test system: Pseudomonas aeruginosa ATCC 9027; conditions: for microbial growth percentage: compound alone; for MIC of compound alone: first concentration giving growth <= 25%
# Excerpt: as §1, with “strain Pseudomonas aeruginosa” for “strain Enterococcus faecalis”, “ATCC 9027” for “ATCC 33186”, “double-concentration nutritive” for “double-concentration BHI (Brain Heart Infusion)”
# [5] = test system: Staphylococcus aureus ATCC 6538; conditions: compound alone; for MIC alone: first concentration giving growth <= 25%
# Excerpt: FIC Index=([…]) with: • MICa with B: minimum concentration of product A in the combination A+B which makes it possible to obtain an inhibitory effect • MICb with A: minimum concentration of product B in the combination A+B which makes it possible to obtain an inhibitory effect. • MICa: minimum inhibitory concentration of product A alone. • MICb: minimum inhibitory concentration of product B alone. […] As regards the combinations tested, MICa with b and MICb with a are the respective concentrations of A and of B in the combinations which make it possible to obtain a microbial growth percentage of less than or equal to 25%. When the FIC index value is less than or equal to 1, it is considered that the combination of test compounds has a synergistic effect. The microbial strain Staphylococcus aureus ATCC 6538 and a double-concentration nutritive broth liquid culture medium were used. A 96-well microplate and an incubation temperature of 32.5° C. are used. […] Successive dilutions were made with the 1‰ agar solution. 50 μl of each of the daughter solutions obtained containing compound A or B are added to the microplate wells. 100 μl of Sabouraud liquid nutrient broth inoculated at double concentration with the strain Candida albicans and 50 μl of aqueous 1‰ agar solution are also added thereto. 50 μl of each of the daughter solutions obtained containing compound A and 50 μl of each of the daughter solutions obtained containing compound B are added to the microplate wells. 100 μl of Sabouraud liquid nutrient broth inoculated at double concentration with the strain Candida albicans are also added thereto. […] The test as described above (tests, absorbance controls and growth control) was performed again to test the combination A+B on the following strains Enterococcus faecalis, Staphylococcus aureus, Pseudomonas aeruginosa, Candida albicans.
# [6] = first concentration giving growth <= 25%
# [7] = compound alone, 0.0025 weight %
Structure (SMILES),microbial growth percentage ([1]; 0.025 weight %),microbial growth percentage ([1]; 0.05 weight %) [%],microbial growth percentage ([1]; 0.1 weight %) [%],MIC alone [1],"microbial growth percentage ([2]; compound alone, 0.025 weight %)","microbial growth percentage ([2]; compound alone, 0.05 weight %)","MIC of compound alone [2, 6]",% MIC alone [3],microbial growth percentage ([1]; 0.2 weight %) [%],microbial growth percentage ([4]; 0.25 weight %),microbial growth percentage ([4]; 0.5 weight %),microbial growth percentage ([3]; 1 weight %),microbial growth percentage ([5]; 0.125 weight %),microbial growth percentage ([5]; 0.25 weight %),microbial growth percentage ([5]; 0.5 weight %),MIC alone [5] [weight %],MIC of compound alone [4] [weight %],microbial growth percentage ([4]; 0.125 weight %) [%],also measured
"CCCCCCCC(=O)c1ccc(O)c(C(=O)O)c1 [B6, 5-n-octanoylsalicylic acid]",40%,30,1,0.1 weight %,98%,97%,0.1 weight %,0.025 weight %,–,–,–,–,–,–,–,–,–,–,"microbial growth percentage ([1]; 0.0125 weight %): 66%; microbial growth percentage ([2]; compound alone, 0.1 weight %): 17%; microbial growth percentage ([3]; 0.0125 weight %): 28%; microbial growth percentage ([3]; 0.025 weight %): 2%"
"CC(=O)c1c([O-])cc(C)oc1=O.[Na+] [B8, sodium dehydroacetate]",–,–,–,0.0025 weight %,–,–,0.02 weight %,–,–,–,–,–,–,–,–,–,–,–,"microbial growth percentage ([1]; 0.00125 weight %): 28%; microbial growth percentage ([1]; 0.0025 weight %): 15%; microbial growth percentage [2, 7]: 97%; microbial growth percentage ([2]; compound alone, 0.005 weight %): 29%; microbial growth percentage ([2]; compound alone, 0.01 weight %): 3%; microbial growth percentage ([2]; compound alone, 0.02 weight %): 3%"
"CCOc1cc(CCC(C)=O)ccc1O [A, 4-(3-ethoxy-4-hydroxyphenyl)butan-2-one]",55% and 56% and 61% and 74% and 53%,–,–,0.1 weight % and 0.2 weight %,65% and 62%,40% and 32%,0.25 weight % and 0.1 weight % and 0.4 weight % and 0.2 weight %,1 weight % and 2 weight %,6,79% and 78% and 87%,74% and 52% and 64%,15% and 28% and 16%,65% and 60% and 61%,55% and 52% and 51%,5% and 1%,0.5,–,–,"microbial growth percentage [2, 7]: 84%; microbial growth percentage ([2]; compound alone, 0.0625 weight %): 84% and 96%; microbial growth percentage ([2]; compound alone, 0.125 weight %): 40% and 41%; microbial growth percentage ([2]; compound alone, 0.25 weight %): 6% and 7%; microbial growth percentage ([2]; compound alone, 0.4 weight %): 5%; microbial growth percentage ([3]; 2 weight %): 24%; microbial growth percentage ([5]; 0.0625 weight %): 67% and 63% and 66%"
"C/C=C/C=C/C(=O)O [B2, sorbic acid]",37%,24,21,0.1 weight %,–,–,0.5 weight %,1 weight %,–,–,–,0%,52%,28%,−5%,0.5,0.5,–,"microbial growth percentage ([2]; compound alone, 0.0125 weight %): 98%; microbial growth percentage ([2]; compound alone, 0.25 weight %): 95%; microbial growth percentage ([2]; compound alone, 0.5 weight %): 8%; microbial growth percentage ([3]; 0.25 weight %): 53%; microbial growth percentage ([3]; 0.5 weight %): 78%"
"C/C=C/C=C/C(=O)[O-].[K+] [B3, potassium sorbate]",–,–,–,–,58%,37%,–,2 weight %,–,–,–,22%,–,–,–,–,–,–,"microbial growth percentage ([2]; compound alone, 0.1 weight %): 10%; % MIC alone ([2]; compound alone, first concentration giving growth <= 25%): 0.1 weight %; microbial growth percentage ([3]; 2 weight %): 10%"
"O=C([O-])c1ccccc1.[Na+] [B1, sodium benzoate]",55%,33,24,0.2 weight %,–,–,–,–,11,116%,89%,–,34%,31%,5%,0.5,1,96,microbial growth percentage ([4]; 0.0625 weight %): 93%; microbial growth percentage ([4]; 1 weight %): 0%; microbial growth percentage ([5]; 0.0625 weight %): 51%
"CCCOC(=O)c1ccc(O)cc1 [B5, propyl 4-hydroxybenzoate]",52%,33,21,0.1 weight %,–,–,–,–,–,45%,42%,–,–,–,–,–,1,76,microbial growth percentage ([4]; 1 weight %): 24%
"COC(=O)c1ccc(O)cc1 [B4, methyl 4-hydroxybenzoate]",67%,40,28,0.2 weight %,–,–,–,–,12,142%,1%,–,–,51%,44%,1,0.5,150,microbial growth percentage ([4]; 0.0625 weight %): 187%; microbial growth percentage ([5]; 1 weight %): 19%
